Data set [1] deals with human PBMC co-cultured with 4T1-D02 (Nectin4+). As to the kind of experiment: Human PBMC-4T1 co-culture (cytokine release) assay. The format is cell-based. The conditions noted are these: anti-CD3 stimulated PBMC, 48 hours. As to the method:
Mouse mammary gland tumor cell line 4T1-1 (4T1-Parental) and murine Nectin-4 overexpressing 4T1 (4T1-D02) were cultured in RPMI1640 supplemented with 10% heat-inactivated Fetal Bovine Serum, 100 I.U/ml Penicillin and 100 I.U/Streptomycin, 20 mM HEPES, 1× Non-Essential Amino Acids, and 2 mM L-Glutamine (RPMI working medium). Frozen PBMCs from healthy human donors were thawed and washed one time in room temperature PBS, and then resuspended in RPMI working medium. For tumor cell and PBMC co-culture, 10000 PBMCs and 2000 tumor cells (5:1) were mixed and plated in each well of a 384 well plate. For stimulating human PBMCs, 125 ng/ml of soluble anti-CD3 mAb (clone OKT3) was added to the culture on day 0. Test, control compounds or vehicle controls were added to respective wells and brought the final volume per well to 100u1. Plates were incubated in a 37° C. cell culture incubator with 5% CO2 for up to three days. Supernatants were collected 48 hours after stimulation, and human IL-2 and IFFγ were detected using HTRF assays. Raw data were analyzed using Excel or Prism software to generate standard curves to interpolate protein concentrations. Data represents one study with three different donor PBMC tested in experimental duplicates.

In data set [2] the target is T1, CD137 (Homo sapiens, UniProt Q07011). As to the kind of experiment: CD137 reporter assay, co-culture with Nectin-4 tumour cells.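 Note: jurkat reporter cells co-cultured with tumour cells and test article for 6 h, luminescence signal relative to Jurkat plus tumour cells lacking test article.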 The format is cell-based. More on the design: host or cells: Jurkat reporter cells.
T1 sequence (Q07011 24-255): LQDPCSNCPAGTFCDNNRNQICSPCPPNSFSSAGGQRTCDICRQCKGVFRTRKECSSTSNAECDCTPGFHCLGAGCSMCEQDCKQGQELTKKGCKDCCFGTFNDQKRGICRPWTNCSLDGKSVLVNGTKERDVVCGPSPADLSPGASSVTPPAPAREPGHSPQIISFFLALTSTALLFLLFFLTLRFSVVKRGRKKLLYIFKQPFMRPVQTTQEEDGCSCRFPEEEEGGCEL
Method: Culture medium referred to as R1 media is prepared by adding 1% FBS to RPMI-1640 (component of Promega kit CS196005). Serial dilutions of test articles in R1 are prepared in a sterile 96 well-plate. Use 25 μl per well of test articles or R1 (as a background control) to designated wells in white cell culture plate. Tumour cells* are harvested and resuspended at a concentration of 400,000 cells/mL in R1 media. Twenty five (25) μL/well tumour cells are used in white cell culture plate. Jurkat cells (Promega kit CS196005, 0.5 mL) are thawed in the water bath and then added to 5 ml pre-warmed R1 medium. Twenty five (25) μL/well Jurkat cells are used in white cell culture plate. Incubate the cells and test articles for 6h at 37° C., 5% CO2. At the end of 6 h, add 75 μl/well Bio-Glo™ (Promega) and incubate for 10 min before reading luminescence in a plate reader (Clariostar, BMG). The fold change relative to cells (Jurkat cells+Cell line used in co-culture) is calculated and plotted in GraphPad Prism as log(agonist) vs response to determine EC50 (nM) and Fold Induction over background (Max)
Data set [3] concerns the target T1, CD137. As to the kind of experiment: CD137 Biacore (SPR) binding assay. Further details: purchased R&D systems. As to conditions: biotinylated human CD137, 25° C. As to the method: Biacore experiments were performed to determine ka (M^−1s^−1), kd (s^−1), KD (nM) values of heterotandem peptides binding to human CD137 protein. […] The protein was desalted to remove uncoupled biotin using spin columns into PBS.
For analysis of peptide binding, a Biacore T200 or a Biacore 3000 instrument was used with a XanTec CMD500D chip. Streptavidin was immobilized on the chip using standard amine-coupling chemistry at 25° C. with HBS-N (10 mM HEPES, 0.15 M NaCl, pH 7.4) as the running buffer. Briefly, the carboxymethyl dextran surface was activated with a 7 min injection of a 1:1 ratio of 0.4 M 1-ethyl-3-(3-dimethylaminopropyl) carbodiimide hydrochloride (EDC)/0.1 M N-hydroxy succinimide (NHS) at a flow rate of 10 μl/min. For capture of streptavidin, the protein was diluted to 0.2 mg/ml in 10 mM sodium acetate (pH 4.5) and captured by injecting 120 μl of onto the activated chip surface. Residual activated groups were blocked with a 7 min injection of 1 M ethanolamine (pH 8.5) and biotinylated CD137 captured to a level of 270-1500 RU. Buffer was changed to PBS/0.05% Tween 20 and a dilution series of the peptides was prepared in this buffer with a final DMSO concentration of 0.5%. The top peptide concentration was 500 nM with 6 further 2-fold or 3-fold dilutions. The SPR analysis was run at 25° C. at a flow rate of 90 μl/min with 60 seconds association and 900 seconds dissociation. After each cycle a regeneration step (10 μl of 10 mM glycine pH 2) was employed. Data were corrected for DMSO excluded volume effects as needed. All data were double-referenced for blank injections and reference surface using standard processing procedures and data processing and kinetic fitting were performed using Scrubber software, version 2.0c (BioLogic Software). Data were fitted using simple 1:1 binding model allowing for mass transport effects where appropriate.

The target of data set [4] is T1, CD137. As to the kind of experiment: CD137 reporter assay, co-culture with EphA2 tumour cells. In kind it is cell-based. More on the design: host or cells: Jurkat reporter cells. The conditions noted are these: tumour target EphA2, co-culture with PC3, at 100 nM; read-out: Fold Induction over Background at 100 nM. The method in brief: (§1)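 Jurkat CD137 reporter cells co-cultured with tumour cells and serially diluted test articles in RPMI-1640 + 1% FBS, 6 h at 37 °C, 5% CO2. Luminescence read after Bio-Glo; fold change over cells-only background fitted log(agonist) vs response for EC50 (nM) and maximal fold induction.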

The target of data set [5] is T1, CD137. As to the kind of experiment: CD137 reporter assay, co-culture with PD-L1 expressing cell line RKO. The format is cell-based. More on the design: host or cells: Jurkat reporter cells. As to conditions: tumour target PD-L1, co-culture with RKO, 6 h; for fold induction: read-out: Fold Induction over Background. The method, boiled down: as §1

In the case of `CCCC[C@@H]1NC(=O)[C@H](Cc2ccc(O)cc2)NC(=O)[C@@H]2CCCN2C(=O)[C@H](CC(=O)O)NC(=O)[C@H](C)NC(=O)[C@H](Cc2ccccc2)NC(=O)[C@@H]2CSCCC(=O)N3CN(CN(C3)C(=O)CCSC[C@@H](C(=O)N[C@@H](C)C(N)=O)NC1=O)C(=O)CCSC[C@H](NC(C)=O)C(=O)N[C@@H](CC(C)(C)C)C(=O)N1CCC[C@H]1C(=O)N[C@@H](CCCCNC(=O)CCc1cn(CCOCCOCCOCCOCCOCCC(=O)N[C@H]3CSCCC(=O)N4CN5CN(C4)C(=O)CCSC[C@H](NC(=O)[C@@H](CC(=O)O)NC(=O)[C@H](Cc4cccc6ccccc46)NC(=O)[C@@H]4CCCN4C3=O)C(=O)N[C@@H](CCSC)C(=O)N[C@@H](CCCCNC(=N)N)C(=O)N[C@@H](CC(=O)O)C(=O)N[C@@H](Cc3c[nH]c4ccccc34)C(=O)N[C@@H](CO)C(=O)N[C@@H]([C@@H](C)O)C(=O)N3CCC[C@H]3C(=O)N3C[C@H](O)C[C@H]3C(=O)N[C@@H](Cc3c[nH]c4ccccc34)C(=O)N[C@H](C(N)=O)CSCCC5=O)nn1)C(=O)N[C@H](C)C(=O)N1CCC[C@H]1C(=O)N[C@@H](Cc1ccc(O)cc1)C(=O)N2` [BCY10571], the results for the EC50 (in data set [1] (IFN-γ secretion); on CD137 [2]) were 0.44 nM and 3.5 nM, respectively. Moreover, the “max IFN-y” value in data set [1] came out at 18349 pg/mL. For the same molecule, the “Fold Induction over Background” value at CD137 [2] (tumour target Nectin4, co-culture with H1376, 6 h) was found to be 60 fold.
On CD137 [3], `CCCC[C@@H]1NC(=O)[C@H](Cc2ccc(O)cc2)NC(=O)[C@@H]2CCCN2C(=O)[C@H](CC(=O)O)NC(=O)[C@@H](C)NC(=O)[C@H](Cc2ccccc2)NC(=O)[C@@H]2CSCCC(=O)N3CN(CN(C3)C(=O)CCSC[C@@H](C(=O)N[C@@H](CNC(=O)CCOCCOCCOCCOCCOCCOCCOCCOCCOCCOCCOCCOCCn3cc(CCC(=O)NCCC(=O)N(C)CC(=O)N(C)CC(=O)N(C)CC(=O)N(C)CC(=O)N(C)CC(=O)N(C)CC(=O)N(C)CC(=O)N(C)CC(=O)N(C)CC(=O)N(C)CC(=O)N[C@@H](C)C(=O)N[C@@H](CCCCNC(=N)N)C(=O)N[C@@H](CC(=O)O)C(=O)N[C@H]4CSCCC(=O)N5CN6CN(C5)C(=O)CCSC[C@H](NC(=O)[C@H](CC(C)C)NC(=O)[C@@H]5CCCN5C(=O)[C@H](CC(N)=O)NC(=O)[C@H](C(C)C)NC(=O)[C@H](CC(C)C)NC(=O)[C@@H]5C[C@@H](O)CN5C4=O)C(=O)N[C@@H](CC(C)C)C(=O)N[C@@H](Cc4c[nH]cn4)C(=O)N4CCC[C@H]4C(=O)N[C@H](CC(=O)O)C(=O)N[C@@H](Cc4c[nH]c5ccccc45)C(=O)N[C@@H](CCCCNC(=N)N)C(=O)N[C@H](C(N)=O)CSCCC6=O)nn3)C(N)=O)NC1=O)C(=O)CCSC[C@H](NC(=O)[C@H](C)NC(C)=O)C(=O)N[C@@H]([C@@H](C)CC)C(=O)N[C@@H](CCC(=O)O)C(=O)N[C@@H](CCC(=O)O)C(=O)NCC(=O)N[C@@H](CCC(N)=O)C(=O)N[C@@H](Cc1ccc(O)cc1)C(=O)N2` [BCY8942] registered a Kd of 853 nM. The fold induction at 0.1 µM on CD137 [4] is less than 2.
For `CCCC[C@@H]1NC(=O)[C@H](Cc2ccc(O)cc2)NC(=O)[C@@H]2CCCN2C(=O)[C@H](CC(=O)O)NC(=O)[C@H](C)NC(=O)[C@H](Cc2ccccc2)NC(=O)[C@@H]2CSCCC(=O)N3CN(CN(C3)C(=O)CCSC[C@@H](C(=O)N[C@@H](CNC(=O)CCOCCOCCOCCOCCOCCn3cc(CCC(=O)NCCCC[C@@H]4NC(=O)[C@H](CCC(N)=O)NC(=O)[C@@H]5CSCCC(=O)N6CN(CN(C6)C(=O)CCSC[C@@H](C(=O)N6CCC[C@H]6C(=O)N[C@@H](CO)C(=O)N[C@@H](Cc6c[nH]cn6)C(N)=O)NC(=O)[C@H](CC(C)C)NC(=O)[C@H](Cc6c[nH]cn6)NC(=O)[C@H](CC(C)C)NC4=O)C(=O)CCSC[C@H](NC(=O)[C@H](CCCCN)NC(=O)[C@H](CC(=O)O)NC(=O)[C@H](CO)NC(C)=O)C(=O)N[C@@H](CO)C(=O)N[C@@H](C)C(=O)NCC(=O)N[C@@H](Cc4c[nH]c6ccccc46)C(=O)N[C@@H](CC(C)C)C(=O)N[C@@H]([C@@H](C)O)C(=O)N[C@@H](CCSC)C(=O)N5)nn3)C(N)=O)NC1=O)C(=O)CCSC[C@H](NC(C)=O)C(=O)N[C@@H](CC(C)(C)C)C(=O)N1CCC[C@H]1C(=O)N[C@@H](CCC(=O)O)C(=O)N[C@H](C)C(=O)N1CCC[C@H]1C(=O)N[C@@H](Cc1ccc(O)cc1)C(=O)N2` [BCY11381], the fold induction on CD137 [5] turned out to be 7.
Take `CCCC[C@@H]1NC(=O)[C@H](Cc2ccc(O)cc2)NC(=O)[C@@H]2CCCN2C(=O)[C@H](CC(=O)O)NC(=O)[C@H](C)NC(=O)[C@H](Cc2ccccc2)NC(=O)[C@@H]2CSCCC(=O)N3CN(CN(C3)C(=O)CCSC[C@@H](C(=O)N[C@@H](CNC(=O)CCOCCOCCOCCOCCOCCOCCOCCOCCOCCOCCOCCOCCn3cc(CCC(=O)NCCCC[C@@H]4NC(=O)[C@H](CCC(N)=O)NC(=O)[C@@H]5CSCCC(=O)N6CN(CN(C6)C(=O)CCSC[C@H](NC(=O)[C@H](CCCCN)NC(=O)[C@H](CC(=O)O)NC(=O)[C@@H](N)CO)C(=O)N[C@@H](CO)C(=O)N[C@@H](C)C(=O)NCC(=O)N[C@@H](Cc6c[nH]c7ccccc67)C(=O)N[C@@H](CC(C)C)C(=O)N[C@@H]([C@@H](C)O)C(=O)N[C@@H](CCSC)C(=O)N5)C(=O)CCSC[C@@H](C(N)=O)NC(=O)[C@H](CC(C)C)NC(=O)[C@H](Cc5c[nH]cn5)NC(=O)[C@H](CC(C)C)NC4=O)nn3)C(N)=O)NC1=O)C(=O)CCSC[C@H](NC(C)=O)C(=O)N[C@@H](CC(C)(C)C)C(=O)N1CCC[C@H]1C(=O)N[C@@H](CCC(=O)O)C(=O)N[C@H](C)C(=O)N1CCC[C@H]1C(=O)N[C@@H](Cc1ccc(O)cc1)C(=O)N2` [BCY10582]: on CD137 [5], the half-maximal effective concentration (EC50) came to 28 nM and the “Fold Induction over Background” value worked out at 4 fold.
On to `CCCC[C@@H]1NC(=O)[C@H](Cc2ccc(O)cc2)NC(=O)[C@@H]2CCCN2C(=O)[C@H](CC(=O)O)NC(=O)[C@H](C)NC(=O)[C@H](Cc2ccccc2)NC(=O)[C@@H]2CSCCC(=O)N3CN(CN(C3)C(=O)CCSC[C@@H](C(=O)N[C@@H](C)C(N)=O)NC1=O)C(=O)CCSC[C@H](NC(C)=O)C(=O)N[C@@H](CC(C)(C)C)C(=O)N1CCC[C@H]1C(=O)N[C@@H](CCCCNC(=O)CCOCCOCCOCCOCCOCCn1cc(CCC(=O)NCCCC[C@@H]3NC(=O)[C@H](CCC(N)=O)NC(=O)[C@@H]4CSCCC(=O)N5CN(CN(C5)C(=O)CCSC[C@@H](C(=O)N5CCC[C@H]5C(=O)N[C@@H](CO)C(=O)N[C@@H](Cc5c[nH]cn5)C(N)=O)NC(=O)[C@H](CC(C)C)NC(=O)[C@H](Cc5c[nH]cn5)NC(=O)[C@H](CC(C)C)NC3=O)C(=O)CCSC[C@H](NC(=O)[C@H](CCCCN)NC(=O)[C@H](CC(=O)O)NC(=O)[C@H](CO)NC(C)=O)C(=O)N[C@@H](CO)C(=O)N[C@@H](C)C(=O)NCC(=O)N[C@@H](Cc3c[nH]c5ccccc35)C(=O)N[C@@H](CC(C)C)C(=O)N[C@@H]([C@@H](C)O)C(=O)N[C@@H](CCSC)C(=O)N4)nn1)C(=O)N[C@H](C)C(=O)N1CCC[C@H]1C(=O)N[C@@H](Cc1ccc(O)cc1)C(=O)N2` [BCY11379], for which the fold induction on CD137 [5] came to 6.
